From ChEMBL document CHEMBL2010673, “Structure-activity relationship of pyrrole based S-nitrosoglutathione reductase inhibitors: carboxamide modification” (Bioorg Med Chem Lett, 2012)

System: A549
Assay: Cytotoxicity against human A549 cells after 48 hrs by MTS assay
Type: cell-based
Conditions: A549, 48 h; call rule not given here

| SMILES | IC50 [nM] |
| --- | --- |
| Cc1cc(S(N)(=O)=O)ccc1-n1c(CCC(=O)O)ccc1-c1ccc(-n2ccnc2C)s1 | > 150000 |
| Cc1nccn1-c1ccc(-c2ccc(CCC(=O)O)n2-c2ccc(S(N)(=O)=O)cc2)s1 | > 150000 |
| Cc1cc(NS(C)(=O)=O)ccc1-n1c(CCC(=O)O)ccc1-c1cc(-n2ccnc2C)cs1 | > 150000 |
| Cc1nccn1-c1ccc(-c2ccc(CCC(=O)O)n2-c2ccc(O)cc2)s1 | > 150000 |

System: not listed separately
Assay: Inhibition of Smt-tagged S-nitrosoglutathione reductase expressed in Escherichia coli using […] as substrate for 3 mins by spectrophotometric analysis
Conditions: not given

| SMILES | IC50 |
| --- | --- |
| CCOC(=O)CCc1ccc(-c2ccc(OC)cc2)n1-c1ccc(CC(N)=O)cc1 | Not Active |

Same assay, conditions: read-out: IC50

| SMILES | IC50 [nM] |
| --- | --- |
| CCOC(=O)CCc1ccc(-c2ccc(OC)cc2)n1-c1ccc(O)cc1 | 240 |
| CCOC(=O)CCc1ccc(-c2ccc(Br)cc2)n1-c1ccc(C(=O)Nc2ccncc2)cc1C | 61 |
| CCOC(=O)CCc1ccc(-c2ccc(OC)cc2)n1-c1ccc(C(=O)NC)cc1 | 4560 |
| CCOC(=O)CCc1ccc(-c2ccc(OC)cc2)n1-c1ccc(C(N)=O)cc1 | 460 |
| CCOC(=O)CCc1ccc(-c2ccc(OC)cc2)n1-c1ccc(S(N)(=O)=O)cc1C | 330 |
| CCOC(=O)CCc1ccc(-c2ccc(OC)cc2)n1-c1ccc(O)cc1C | 1550 |
| Cc1cc(S(N)(=O)=O)ccc1-n1c(CCC(=O)O)ccc1-c1ccc(-n2ccnc2C)s1 | 22 |
| CCOC(=O)CCc1ccc(-c2ccc(OC)cc2)n1-c1ccc(OC)cc1C | 1800 |
| CCOC(=O)CCc1ccc(-c2ccc(OC)cc2)n1-c1ccc(C(=O)NCCOC)cc1C | 730 |
| Cc1nccn1-c1ccc(-c2ccc(CCC(=O)O)n2-c2ccc(NS(C)(=O)=O)cc2)cc1 | 1790 |
| CCOC(=O)CCc1ccc(-c2ccc(OC)cc2)n1-c1ccc(OC)cc1 | 1020 |
| CCOC(=O)CCc1ccc(-c2ccc(OC)cc2)n1-c1ccc(C)cc1C | 8840 |
| CC(=O)Nc1ccc(-n2c(CCC(=O)O)ccc2-c2ccc(-n3ccnc3)cc2)c(C)c1 | 56 |
| CCC(=O)Nc1ccc(-n2c(CCC(=O)O)ccc2-c2ccc(-n3ccnc3)cc2)c(C)c1 | 88 |
| COCC(=O)Nc1ccc(-n2c(CCC(=O)O)ccc2-c2ccc(-n3ccnc3)cc2)c(C)c1 | 96 |
| Cc1cc(O)ccc1-n1c(CCC(=O)O)ccc1-c1ccc(-n2ccnc2)cc1 | 180 |
| CCOC(=O)CCc1ccc(-c2ccc(OC)cc2)n1-c1ccc(NC(C)=O)cc1 | 3270 |
| O=C(O)CCc1ccc(-c2ccc(-n3ccnc3)s2)n1-c1ccc(O)cc1 | 32 |
| Cc1cc(C(=O)O)ccc1-n1c(CCC(=O)O)ccc1-c1ccc(-n2ccnc2)cc1 | 110 |
| Cc1cc(CN)ccc1-n1c(CCC(=O)O)ccc1-c1ccc(-n2ccnc2)cc1 | 1590 |
| CCOC(=O)CCc1ccc(-c2ccc(OC)cc2)n1-c1ccc(C(=O)NCCO)cc1C | 660 |
| CCOC(=O)CCc1ccc(-c2ccc(OC)cc2)n1-c1ccc(C(C)=O)cc1 | 960 |

| SMILES | IC50 [nM] |
| --- | --- |
| CCOC(=O)CCc1ccc(-c2ccc(OC)cc2)n1-c1ccc(NS(N)(=O)=O)cc1C | 710 |
| Cc1cc(N)ccc1-n1c(CCC(=O)O)ccc1-c1ccc(-n2ccnc2)cc1 | 1410 |
| CC(=O)Nc1ccc(-n2c(CCC(=O)O)ccc2-c2ccc(-n3ccnc3C)cc2)cc1 | 3890 |
| Cc1nccn1-c1ccc(-c2ccc(CCC(=O)O)n2-c2ccc(S(N)(=O)=O)cc2)s1 | 23 |
| Cc1nccn1-c1ccc(-c2ccc(CCC(=O)O)n2-c2ccc(O)cc2)cc1 | 54 |
| CCOC(=O)CCc1ccc(-c2ccc(OC)cc2)n1-c1ccc(C(=O)Nc2cccnc2)cc1C | 440 |
| CC(=O)Nc1ccc(-n2c(CCC(=O)O)ccc2-c2cc(-n3ccnc3C)cs2)cc1 | 140 |
| CCOC(=O)CCc1ccc(-c2ccc(OC)cc2)n1-c1ccc(C(=O)NC)cc1C | 2410 |
| Cc1nccn1-c1csc(-c2ccc(CCC(=O)O)n2-c2ccc(NS(C)(=O)=O)cc2)c1 | 360 |
| CCOC(=O)CCc1ccc(-c2ccc(OC)cc2)n1-c1ccc(Br)cc1 | 3250 |
| Cc1cc(NS(C)(=O)=O)ccc1-n1c(CCC(=O)O)ccc1-c1cc(-n2ccnc2C)cs1 | 76 |
| CCOC(=O)CCc1ccc(-c2ccc(OC)cc2)n1-c1ccc(C(=O)Nc2ccnnc2)cc1C | 640 |
| O=C(O)CCc1ccc(-c2ccc(-n3ccnc3)cc2)n1-c1ccc(O)cc1 | 39 |
| CCOC(=O)CCc1ccc(-c2ccc(OC)cc2)n1-c1ccc(C(=O)Nc2cncnc2)cc1C | 3740 |
| CCOC(=O)CCc1ccc(-c2ccc(OC)cc2)n1-c1ccc(C(=O)Nc2ccncc2)cc1C | 170 |
| Cc1nccn1-c1cc(-c2ccc(CCC(=O)O)n2-c2ccc(O)cc2)cs1 | 45 |
| CC(=O)Nc1ccc(-n2c(CCC(=O)O)ccc2-c2ccc(-n3ccnc3C)cc2)c(C)c1 | 450 |
| CCOC(=O)CCc1ccc(-c2ccc(OC)cc2)n1-c1ccc(C(=O)N(C)C)cc1C | 1310 |
| Cc1nccn1-c1csc(-c2ccc(CCC(=O)O)n2-c2ccc(O)cc2)c1 | 96 |
| Cc1cc(NS(C)(=O)=O)ccc1-n1c(CCC(=O)O)ccc1-c1ccc(-n2ccnc2C)cc1 | 180 |
| Cc1nccn1-c1ccc(-c2ccc(CCC(=O)O)n2-c2ccc(O)cc2)s1 | 36 |
| CCOC(=O)CCc1ccc(-c2ccc(OC)cc2)n1-c1ccc(NC(N)=O)cc1 | 4800 |

System: not listed separately
Assay: Oral bioavailability in BALB/c mouse at 10 mg/kg by LC-MS/MS analysis
Type: ADME, organism-based
Conditions: in vivo

| SMILES | bioavailability [%] |
| --- | --- |
| O=C(O)CCc1ccc(-c2ccc(-n3ccnc3)cc2)n1-c1ccc(O)cc1 | 6.8 |
| Cc1nccn1-c1ccc(-c2ccc(CCC(=O)O)n2-c2ccc(O)cc2)s1 | 3.9 |

System: not listed separately
Assay: Plasma clearance in BALB/c mouse at 2 mg/kg, iv by LC-MS/MS analysis
Type: ADME, organism-based
Parameters: dose 2 mg/kg, route intravenous
Conditions: not given

| SMILES | clearance [mL/min/kg] |
| --- | --- |
| O=C(O)CCc1ccc(-c2ccc(-n3ccnc3)cc2)n1-c1ccc(O)cc1 | 37.1 |
| Cc1nccn1-c1ccc(-c2ccc(CCC(=O)O)n2-c2ccc(O)cc2)s1 | 23.9 |
